This note sets out measurements from patent publication US7414023B2, “Peptide ligands for prostate specific antigen” (Licentia Ltd., priority 2000, dated 2008).

Bridge positions count the residues as written; N and C are the ends. Peptide text beside a SMILES is read from it.

Design in all cases: PSA was purified from human seminal fluid as described previously (3); from tissue; host or cells: human seminal fluid
The target of assay [1] is T1, PSA (Homo sapiens, UniProt P07288). Nature of the assay: GST-peptide IFMA: binding of GST-peptides to PSA captured by MAb 5E4. Particulars: for binding to PSA in GST-peptide IFMA (in words): GST fusion proteins; for Maximal binding (CPS): GST-peptide fusion proteins, Eu-labelled anti GST antibody as tracer. The protocol:
After washing the binding of GST-peptide was quantified by IFMA using an Eu-labelled anti GST antibody as tracer. Data represent mean values from duplicate wells ±standard error (SE).
The solid phase antibodies used in the IFMAs were coated onto microtitration wells at a concentration of 5 μg/mL in TBS for 16 h at 22° C., the solution was discarded and the wells were saturated with 10 g/L bovine serum albumin in TBS for 3 h at 22° C. The antibodies used as tracers were labeled with a Eu^3+ chelate as described previously (26). The assay buffer was 50 mM Tris-HCL, pH 7.7, 150 mM NaCl, 33.3 μM bovine serum albumin, 1 μM bovine globulin.
The binding of individual phage clones to PSA was tested by IFMA (phage IFMA). In the phage IFMA, about 30 ng of PSA was added to MAb 5E4 coated wells for 1 h. After washing (Buffer: 150 mM NaCl, 7.7 mM NaN3, 0.2 g/L Tween 20), 15 μL of phage and 200 μl assay buffer was added. After incubation for 1 h, the wells were washed and filled with 200 μl of assay buffer containing 50 ng europium-labeled anti phage monoclonal antibody recognizing the M13 coat protein of the phage. After incubation for 60 min, the wells were washed 4 times, and enhancement solution (EG&G-Wallac) was added. The fluorescence was quantified with a 1234 DELFIA Research fluorometer (EG&G-Wallac). Binding of GST-peptide to PSA was determined by an IFMA (GST-peptide IFMA) similar to the one for phage peptides except that Eu^3+-labeled antibody to GST was used. Various amounts of GST-peptide or wild type GST were added to wells containing captured PSA in 200 μL of assay buffer and incubated for 1 h. To test the effect of Zn^2+ on the binding between GST-peptide and PSA, various concentrations of Zn^2+ (1-200 μM) were added to the buffer in the incubation step of GST-peptide and PSA. In competition experiments, GST-peptide (167 nM) or wild type GST were first incubated with increasing amounts of PSA (0-333 nM) in 0.5% BSA-TBS buffer for 60 min, then added to wells containing PSA captured by MAb 5E4. After incubation for 1 h the wells were washed and Eu^3+-labeled anti GST antibody was added. After further incubation and washing the bound fluorescence was measured as described above. When assessing the binding of the GST-peptides to other proteinases, including chymotrypsin, cathepsin G, trypsin, and kallikrein, these proteinases were captured by their specific antibodies coated to the microtitration well. Recombinant hK2 was captured by MAb 5E4, which is known to bind hK2 (24). For assessing the binding of the GST-peptides with complexes of PSA, including PSA-ACT and PSA-α1-protease inhibitor (PSA-API) (28), the complexes were captured by antibodies against ACT and API, respectively. After capturing the various proteinases or PSA complexes, GST-peptide was added and binding was monitored as described above for the GST-peptide IFMA.

For assay [2], the target named is T1, PSA. Nature of the assay: Surface plasmon resonance, GST-peptides on PSA captured by MAb H117. It counts as binding. As to the method:
The binding kinetics of selected peptides to PSA was studied by surface plasmon resonance (29) on a BIAcore 2000™ instrument (Biacore AB, Uppsala, Sweden). PSA was captured to the solid phase by MAb H117 which binds to the same epitope as MAb 5E4 (30). The capture antibody was covalently coupled onto the surface of the CM5 sensor chip according to the manufacturer's instructions, using coupling levels of 5000 resonance units (RU). PSA was captured by injection of 416 nM of PSA in PBS, 4-min contact time (5 μl/min) and 60 min wash (20 μl/min) providing ligand levels in the range 500-600 RUs. Each analyte (GST-peptide), at various concentrations, was injected for 1 min at 20 μl/min flow rate. […] PSA-binding to either chemically activated/deactivated blank surface or MAb H117 alone was subtracted as a non-specific interaction. Regeneration after each measurement cycle was done with 3×0.5 min injections of 10 mM HCl. Binding data were analyzed using the BIAEVALUATION software.
The association rate constat (ka), dissociation rate constant (kd) and equilibrium dissociation constant (KD) for GST-peptides to PSA were measured by surface plasmon resonance. […]
The binding kinetics and affinity of the peptides to PSA was estimated by surface plasmon resonance. Increasing concentrations of GST-peptides were injected over PSA captured by MAb H117. Background-corrected sensorgrams were fitted to single-site interaction between GST-peptide and PSA using three different GST-peptide concentrations and the rate equation: d(GST-peptide:PSA)/dt=ka(GST-peptide)×(PSA)−kd(GST-peptide:PSA).
For orientation: Surface plasmon resonance follows binding to a sensor surface in real time, without labels.

Assay [3] addresses T1, PSA. Nature of the assay: PSA activity measurements with modified peptides, substrate S-2586 (Example 5). It counts as biochemical. The note with it: ratio of OD 405 nm of PSA-peptide to PSA alone after 60 minutes; ratio > 1.1 interpreted as active. The protocol:
PSA activity measurements: The effect of different peptides on the activity of PSA was studied by using chymotrypsin substrate S-2586 (MeO-Suc-Arg-Pro-Tyr-pNA) (Chromogenix, Mölndal, Sweden). 77 pmoles (2 μg) of PSA, substrate and 10 μmoles of different peptides were incubated in Tris-buffer (10 mM Tris and 150 mM NaCl at pH 7.8) with 0.2 mM concentration of the substrate at room temperature. PSA reaction without any peptide was used as basic level control. Reaction was measured after 60 minutes incubation at […] using Multiscan RC photometer (Labsystems, Finland). The effect of the peptides was calculated as a ratio from the OD value of PSA-peptide complex to PSA alone after 60 minutes incubation.

Setting [4] is: average at 3 analyte concentrations.
The mark [5] stands for this setting: zinc 0 μM, average of 3 fits, analyte 3.4-8.5 μM.
The mark [6] stands for this setting: zinc 1 μM, single fit, 3.4 μM peptide.
[7] abbreviates: zinc 10 μM, single fit, 3.4 μM peptide.
Where [8] appears, read: zinc 30 μM, single fit, 3.4 μM peptide.

T1 sequence (P07288 25-261): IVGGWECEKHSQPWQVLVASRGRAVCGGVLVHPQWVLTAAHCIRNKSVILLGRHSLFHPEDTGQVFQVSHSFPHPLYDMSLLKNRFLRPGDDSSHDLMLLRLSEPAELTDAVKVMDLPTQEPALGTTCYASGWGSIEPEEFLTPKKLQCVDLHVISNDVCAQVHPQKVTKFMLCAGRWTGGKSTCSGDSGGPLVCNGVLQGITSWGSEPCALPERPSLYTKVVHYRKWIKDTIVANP

For `CC(C)C[C@@H]1NC(=O)[C@H](Cc2ccc(O)cc2)NC(=O)[C@H](CC(=O)O)NC(=O)[C@H](Cc2ccc(O)cc2)NC(=O)[C@H](CC(N)=O)NC(=O)[C@H](Cc2c[nH]cn2)NC(=O)[C@H](C)NC(=O)[C@H](Cc2ccccc2)NC(=O)[C@H](C(C)C)NC(=O)[C@@H](N)CSSC[C@@H](C(=O)O)NC(=O)[C@H](C(C)C)NC1=O` [Peptide B-2] (H-CVFAHNYDYLVC-OH; disulfide 1-12; N-terminus assumed), the “binding to PSA in GST-peptide IFMA (in words)” value on PSA [1] was “less efficiently than C-4”. Further, the “Maximal binding (CPS)” value at PSA [1] is recorded as 428000 CPS. Further, the “kd × 10^−3 (1/s)” value on PSA [2] (setting [4]) is recorded as 57 × 10^−3 1/s; at PSA [2] (setting [5]), 57 × 10^−3 1/s; on PSA [2] (setting [6]), 3.5 × 10^−3 1/s; on PSA [2] (setting [7]), 1.6 × 10^−3 1/s; at PSA [2] (setting [8]), 0.6 × 10^−3 1/s. Further, the “increase (fold) of affinity” value was found to be 6 fold at PSA [2] (zinc 10 μM versus 0 μM) and 4.7 fold at PSA [2] (zinc 30 μM versus 0 μM). The PSA-peptide/PSA ratio on PSA [3] came to 3.0.
For the compound CVFTSDYAFC [Peptide A-1], the “binding to PSA in GST-peptide IFMA (in words)” value on PSA [1] is listed as “less efficiently than C-4”. The “Maximal binding (CPS)” value at PSA [1] is given as 219000 CPS. For the same compound, the “ka × 10^3 (1/Ms)” value at PSA [2] (setting [4]) was 10.3 × 10^3 1/Ms; on PSA [2] (setting [5]), 10.3 × 10^3 1/Ms; at PSA [2] (setting [6]), 1.8 × 10^3 1/Ms; on PSA [2] (setting [7]), 1.2 × 10^3 1/Ms; at PSA [2] (setting [8]), 1.9 × 10^3 1/Ms. Also, the “kd × 10^−3 (1/s)” value on PSA [2] (setting [4]) was 80 × 10^−3 1/s; on PSA [2] (setting [5]) it was 80 × 10^−3 1/s; at PSA [2] (setting [6]), 4.7 × 10^−3 1/s; on PSA [2] (setting [7]), 1.6 × 10^−3 1/s; at PSA [2] (setting [8]), 2.0 × 10^−3 1/s. Further, the dissociation constant (Kd) (as a rule, the equilibrium constant for the complex coming apart) is 7.8 µM on PSA [2] (setting [5]) and 1 µM on PSA [2] (setting [8]). Moreover, the figures for the “increase (fold) of affinity” value on PSA [2] (zinc 1 μM versus 0 μM), at PSA [2] (zinc 10 μM versus 0 μM) and on PSA [2] (zinc 30 μM versus 0 μM) were 3 fold, 5.9 fold and 7.7 fold, respectively. Besides, the PSA-peptide/PSA ratio on PSA [3] was 2.3.
